Read-outs that look alike come from different tables or passages of the source.
Tests used:
[1] = Plasma pharmacokinetics of CC-11050 in mice after a single oral gavage (LC-MS/MS); format: in vivo; conditions: for Plasma concentration of CC-11050: mean ± SD
Procedure: The PDE4i, CC-11050 (N-[2-[(1S)-1-(3-ethoxy-4-methoxyphenyl)-2-(methylsulfonyl) ethyl]-2,3-dihydro-3-oxo-1H-isoindol-4-yl]-(9Cl) cyclopropanecarboxamide) has an empirical formula of C24H28N2O6S with one chiral center (Figure S1A in Supplementary Material). Uninfected mice (n = 3 per group) were treated with 5, 25, or 50 mg/kg of CC-11050 by oral gavage. In another experiment, mice (n = 3) were treated with 50 mg/kg of CC-11050 plus 50 mg/kg of INH. A group of mice (n = 3) without treatment were included as negative control. Venous blood was collected at 1, 2, 5, 8, and 24 h after a single gavage administration of CC-11050, with or without INH. Time-matched blood samples were also collected from untreated mice. The animals were gavaged after overnight fasting and fed soon after gavage. Plasma was collected by centrifugation of blood samples at 1,100× g for 10 min at 10°C and used for LC-MS/MS analysis.
The standard curve and quality control for CC-11050 were prepared in mouse plasma diluted 1:1 with Sorenson’s Citrate Buffer (25 mM; pH 1.5). Internal standard was prepared with ^13CD3-CC-11050 and mixed with the standard, quality control, or test samples at 4:1:1 (^13CD3-CC-11050:mouse plasma:Sorenson’s Citrate Buffer, vol/vol/vol) ratio. The mix was centrifuged at 4,000 rpm for 10 min at room temperature, and the supernatant was transferred to a 96-well assay plate. LC-MS/MS was performed using a Sciex API 4000 triple quadrupole mass spectrometer (Sciex, Division of MDS Inc., Canada) coupled to a Shimadzu HPLC system (Shimadzu Scientific Instruments, MD, USA). A Phenomenex Gemini column (5 μm, 2.0 mm × 50 mm; Phenomenex, CA, USA) was used for chromatography with 0.1% formic acid in water (mobile phase A) and 0.1% formic acid in acetonitrile (mobile phase B). The parameters used were 0 min for 10%B, 0.0–2.0 min for 10–75%B, 2.1–3.0 min for 95%B, and 3.05–4.0 min for 10%B. For mass spectrometric detection, a positive ion mode with turbo spray (ion source temperature of 450°C) and a dwell time of 100 ms was used. Analytes were quantified using multiple reactions monitoring (MRM) at the following transitions: mass-to-charge ratio 473.1–178.1 and 477.1–182.1 m/z for CC-11050 and its internal standard, respectively. Peak area ratios of the analyte to its internal standard versus analyte concentration, represented as quadratic regression plots, were derived with 1/x^2 weighting. Watson LIMS™ software was used to determine the pharmacokinetic parameters (Thermo Fisher, PA, USA). Peak plasma concentration (Cmax) and corresponding time (Tmax) were calculated from raw data. Area under the plasma concentration-time curve (AUC) was determined by linear/linear-log trapezoidal rule of non-compartmental model using data from time 0 and the last measurable time point (AUClast). All statistics were performed with Watson LIMS™ software. Plasma concentrations below the limit of quantitation (BLOQ) were treated as 0 for calculation.

Pde4 = assay: qPCR of host Pde4 gene expression in Mtb-infected mouse lungs; format: in vivo, mice; conditions: 14 days of treatment (28 days postinfection)
Procedure: Total lung RNA (200 ng) was reverse-transcribed using Sprint RT kit (Clontech, CA, USA); 10 ng of cDNA were used for quantitative real-time PCR (qPCR), with Brilliant II SYBR master mix (Agilent Technologies, CA, USA) and gene-specific primers in a Stratagene Mx3005P instrument (Agilent Technologies, CA, USA). ROX was included in each reaction as an internal control. The qPCR assay was performed using four mouse samples in duplicate per group; the data were analyzed using MxPro Software (Agilent Technologies, CA, USA). Transcript levels of Gapdh were used as a reference against the test genes. Fold change in gene expression was calculated using the formula 2^−ΔΔCt, where ΔCt is the difference in threshold cycle (Ct) between the target gene and Gapdh; and ΔΔCt is the […] between untreated and CC-11050-treated samples. Primers were designed based on nucleotide sequences obtained from PrimerBank.^3

lung granulomas = assay: Histology and morphometric measurement of lung granulomas in Mtb-infected mice; format: in vivo; conditions: 28 days postinfection (14 days of treatment), histology
Procedure: Formalin-fixed lung tissues of Mtb-infected mice were paraffin-embedded, cut into […] sections, and stained with hematoxylin and eosin (H&E) or acid fast staining by Ziehl–Neelsen (ZN) method to visualize host cells and Mtb, respectively (IDEXX-RADIL Laboratories Inc., MO, USA) as described in Ref. ([11]). Stained sections were photographed in a Nikon Microphot-FX photomicrographic system and analyzed with NIS-Elements F3.0 software (Nikon Instruments Inc., NY, USA). Lung granuloma size was morphometrically measured using PathScan Enabler IV scanner (Meyer Instruments, Houston, TX, USA) and SigmaScan Pro software (Systat Software, Inc., CA, USA). Histopathologic analysis and morphometry were performed by an experienced pathologist blinded to the sample identity.

[2] = parameters: method as in PMID 26981575; conditions: rabbits, cited from earlier work
[3] = single oral dose 50 mg/kg CC-11050 + 50 mg/kg INH
[4] = single oral dose 50 mg/kg CC-11050 only

SMILES: CCOc1cc([C@@H](CS(C)(=O)=O)N2Cc3cccc(NC(=O)C4CC4)c3C2=O)ccc1OC [CC-11050, N-[2-[(1S)-1-(3-ethoxy-4-methoxyphenyl)-2-(methylsulfonyl)ethyl]-2,3-dihydro-3-oxo-1H-isoindol-4-yl]-(9Cl) cyclopropanecarboxamide]
- AUClast ([1]; single oral dose 5 mg/kg): 1,080 ng × h/ml
- AUClast ([1]; single oral dose 25 mg/kg): 2,800 ng × h/ml
- AUClast [1, 3]: 13,900 ng × h/ml
- Cmax [1, 3]: 1,610 ng/ml
- Tmax [1, 3]: 5.0 h
- Plasma concentration of CC-11050 ([1]; single oral dose 50 mg/kg CC-11050 + 50 mg/kg INH, 1 h): 905.35 ± 594.23 ng/mL
- Plasma concentration of CC-11050 ([1]; single oral dose 50 mg/kg CC-11050 + 50 mg/kg INH, 2 h): 1,309.39 ± 214.08 ng/ml
- Plasma concentration of CC-11050 ([1]; single oral dose 50 mg/kg CC-11050 + 50 mg/kg INH, 5 h): 1,609.18 ± 167.2 ng/ml
- Plasma concentration of CC-11050 ([1]; single oral dose 50 mg/kg CC-11050 + 50 mg/kg INH, 8 h): 1,271.73 ± 249.18 ng/ml
- Plasma concentration of CC-11050 ([1]; single oral dose 50 mg/kg CC-11050 + 50 mg/kg INH, 24 h): 4.96 ± 1.85 ng/mL
- AUClast [1, 4]: 10,200 ng × h/ml
- Cmax [1, 4]: 1,410 ng/ml
- Tmax [1, 4]: 2.0 h
- Plasma concentration of CC-11050 ([1]; single oral dose 50 mg/kg CC-11050 only, 1 h): 1,331.6 ± 136.97 ng/ml
- Plasma concentration of CC-11050 ([1]; single oral dose 50 mg/kg CC-11050 only, 2 h): 1,409.47 ± 140.85 ng/ml
- Plasma concentration of CC-11050 ([1]; single oral dose 50 mg/kg CC-11050 only, 5 h): 948.85 ± 128.7 ng/mL
- Plasma concentration of CC-11050 ([1]; single oral dose 50 mg/kg CC-11050 only, 8 h): 820.6 ± 265.98 ng/mL
- Plasma concentration of CC-11050 ([1]; single oral dose 50 mg/kg CC-11050 only, 24 h): 1.27 ± 1.1 ng/mL
- Time to peak plasma concentration (Tmax) ([1]; single oral dose, each of three dose levels 5, 25, 50 mg/kg): 1 to 2 h
- Pde4A expression in lungs versus Mtb-infected untreated (Pde4): No significant change
- Pde4C expression in lungs versus Mtb-infected untreated (Pde4): No significant change
- Pde4D expression in lungs versus Mtb-infected untreated (Pde4; 50 mg/kg, P = 0.0037): significantly reduced
- Pde4Bi3 (Pde4B isoform 3) expression in lungs versus Mtb-infected untreated (Pde4; 50 mg/kg, P = 0.015): significantly reduced
- Impact on size and structure of lung lesions (lung granulomas): no significant impact
- Cmax ([2]; 50 mg/kg): 163 ng/mL
- Tmax ([2]; 50 mg/kg): 4 h
- Effect of INH on the pharmacokinetics of CC-11050 [2]: no effects

From publication PMC4911353, “Pharmacologic Inhibition of Host Phosphodiesterase-4 Improves Isoniazid-Mediated Clearance of Mycobacterium tuberculosis” (Frontiers in Immunology, 2016)
